Measurements reported in patent publication US8987195B2 (priority 2012, dated 2015).
Where two headings read alike, the source gives them in different places.

Assays:
HCV genotype 1b replicon = test: HCV replicon assay, genotype 1b replicon EC50; assay type: cell-based, Hepatitis C virus; conditions: genotype 1b replicon, read-out: EC50 [gt-1b]
Protocol: Measuring Compound Inhibitory Potency (Genotype 1b Replicon EC50 (nM))
Measurement of inhibition by compounds was performed using the HCV replicon system. Several different replicons encoding different HCV genotypes or mutations were used. In addition, potency measurements were made using different formats of the replicon assay, including different ways of measurements and different plating formats. See Jan M. Vrolijk et al., A replicons-based bioassay for the measurement of interferons in patients with chronic hepatitis C, 110 J. VIROLOGICAL METHODS 201 (2003); Steven S. Carroll et al., Inhibition of Hepatitis C Virus RNA Replication by 2′-Modified Nucleoside Analogs, 278(14) J. BIOLOGICAL CHEMISTRY 11979 (2003). However, the underlying principles are common to all of these determinations, and are outlined below.
Stable neomycin phosphotransferase encoding replicon-harboring cell lines were used, so all cell lines were maintained under G418 selection prior to the assay. In some cases the cell lines encoded a luciferase:Neo^r fusion and could be assayed either directly by determination of RNA copy number, or indirectly through measurement of the luciferase activity.
To initiate an assay, replicon cells were plated in the presence of a dilution series of test compound in the absence of G418. Typically, the assays were performed in a 96-well plate format for manual operation, or a 384 well plate in an automated assay. Replicon cells and compound were incubated for 24-48 hours, depending on the assay. At the end of the assay, cells are washed free of media and compound and then lysed. For direct quantitation, RNA levels were measured by ^32P-probe hybridization and protection, or in a TAQMAN based assay and normalized to cellular cyclophilin A RNA levels. In some cases, luciferase activity was measured using a conventional luciferase assay. In all cases EC50 determinations were calculated as a percent of a DMSO control by fitting the data to a four parameter fit function.

[1] = molecular target: HCV NS3/4A protease genotype 1b (Hepatitis C virus genotype 1b, UniProt P26663); test: HCV NS3/4A protease time-resolved fluorescence (TRF) assay, Ki against genotype 1b; assay type: biochemical; conditions: IC50 [gt-1b] (nM), NS3/4A genotype 1b, enzyme 0.2 nM
Summary of the method: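 Enzyme was pre-incubated 30 min with inhibitor in HEPES pH 7.5 buffer (150 mM NaCl, 15% glycerol, 10 mM DTT). Reaction ran 2.5 h at room temperature with 25 nM europium TRF peptide substrate, read at ex 340/em 615 nm. Enzyme levels: 0.2 nM (1b), 0.4 nM (A156T), 0.025 nM (3a). Ki came from four-parameter IC50 via IC50=Ki(1+[S]/KM).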

| Compound | EC50 (HCV genotype 1b replicon; Hepatitis C virus) [nM] | IC50 [1] [nM] | EC50 (HCV genotype 1b replicon) [nM] | also measured |
| --- | --- | --- | --- | --- |
| Cc1nc2ccccc2c2c1O[C@]1(CC2)C[C@H]2C(=O)N[C@]3(C(=O)NS(=O)(=O)C4(C)CC4)C[C@H]3/C=C\CCCCC[C@H](NC(=O)OC(CN(C)S(C)(=O)=O)C(C)(C)C)C(=O)N2C1 (single isomer, unassigned) [Example 259] | 24 | 0.007 | – | – |
| Cc1nc2ccccc2c2c1O[C@]1(CC2)C[C@H]2C(=O)N[C@]3(C(=O)NS(=O)(=O)C4(C)CC4)C[C@H]3/C=C\CCCCC[C@H](NC(=O)OC(CN(C)S(C)(=O)=O)C(C)(C)C)C(=O)N2C1 (single isomer, unassigned) [Example 262] | – | 0.037 | 38.9 | – |
| COc1ccc2c3c(c(C4CC4)nc2c1)O[C@]1(CC3)C[C@H]2C(=O)N[C@]3(C(=O)NS(=O)(=O)C4(C)CC4)C[C@H]3/C=C\CCCCC[C@H](NC(=O)CC(C)(C)C)C(=O)N2C1 (single isomer, unassigned) [Example 279] | – | – | – | EC50 (HCV genotype 1b replicon; Hepatitis C virus, HCOOH salt): 22.3 nM; IC50 ([1]; HCOOH salt): 0.051 nM |
| CCc1ccc2nc(C)c3c(c2c1)C(F)C[C@]1(C[C@H]2C(=O)N[C@]4(C(=O)NS(=O)(=O)C5(C)CC5)C[C@H]4/C=C\CCCCC[C@H](NC(=O)OC(C)(C)C)C(=O)N2C1)O3 (single isomer, unassigned) [Example 315] | – | 1.29 | 294 | – |
| CCc1ccc2nc(C)c3c(c2c1)C(F)C[C@]1(C[C@H]2C(=O)N[C@]4(C(=O)NS(=O)(=O)C5(C)CC5)C[C@H]4/C=C\CCCCC[C@H](NC(=O)OC(C)(C)C)C(=O)N2C1)O3 (single isomer, unassigned) [Example 316] | – | 0.008 | 2.63 | – |
| CCc1ccc2nc(C)c3c(c2c1)C(F)C[C@]1(C[C@H]2C(=O)N[C@]4(C(=O)NS(=O)(=O)C5(C)CC5)C[C@H]4/C=C\CCCCC[C@H](NC(=O)OC(C)(C)C(F)(F)F)C(=O)N2C1)O3 (single isomer, unassigned) [Example 346] | – | 0.012 | 4.23 | – |
| CCc1ccc2nc(C)c3c(c2c1)C(F)C[C@]1(C[C@H]2C(=O)N[C@]4(C(=O)NS(=O)(=O)C5(C)CC5)C[C@H]4/C=C\CCCCC[C@H](NC(=O)OC(C)(C)C(F)(F)F)C(=O)N2C1)O3 (single isomer, unassigned) [Example 347] | – | 0.981 | 3060 | – |
| Cc1nc2ccccc2c2c1O[C@]1(CC2)C[C@H]2C(=O)N[C@]3(C(=O)NS(=O)(=O)C4(C)CC4)C[C@H]3/C=C\CCCCC[C@H](NC(=O)NC(C)(C)C)C(=O)N2C1 [Example 76, (2R,6S,12Z,13aS,14aR,16a5)-6-[(tert-butylcarbamoyl)amino]-5′-methyl-N-[(1-methylcyclopropyl)sulfonyl]-5,16-dioxo-1,1′,2′,6,7,8,9,10,11,13a,14,15,16,16a-tetradecahydrospiro[cyclopropa[e]pyrrolo[1,2-a][1,4]diazacyclopentadecine-2,3′-pyrano[2,3-c]quinoline]-14a(5H)-carboxamide] | 11.9 | – | – | – |
| CC(C)(C)OC(=O)N[C@H]1CCCCC/C=C\[C@@H]2C[C@@]2(C(=O)O)NC(=O)[C@@H]2C[C@]3(CCc4c(c(-c5cccc(F)c5)nc5ccccc45)O3)CN2C1=O [Example 77, (2R,6S,12Z,13aS,14aR,16aS)-6-[(tert-butoxycarbonyl)amino]-5′-(3-fluorophenyl)-5,16-dioxo-1,1′,2′,6,7,8,9,10,11,13a,14,15,16,16a-tetradecahydrospiro[cyclopropa[e]pyrrolo[1,2-a][1,4]diazacyclopentadecine-2,3′-pyrano[2,3-c]quinoline]-14a(5H)-carboxylic acid] | > 100 | – | – | – |
| Cc1nc2ccccc2c2c1O[C@]1(CC2)C[C@H]2C(=O)N[C@]3(C(=O)NS(=O)(=O)C4(C)CC4)C[C@H]3/C=C\CCCCC[C@H](NC(=O)OC3(C)CCC3)C(=O)N2C1 [Example 80, 1-methylcyclobutyl [(2R,6S,12Z,13aS,14aR,16aS)-5′-methyl-14a-{[(1-methylcyclopropyl)sulfonyl]carbamoyl}-5,16-dioxo-1,1′,2′,5,6,7,8,9,10,11,13a,14,14a,15,16,16a-hexadecahydrospiro[cyclopropa[e]pyrrolo[1,2-a][1,4]diazacyclopentadecine-2,3′-pyrano[2,3-c]quinolin]-6-yl]carbamate] | 1.47 | – | – | – |
| CC1(S(=O)(=O)NC(=O)[C@@]23C[C@H]2/C=C\CCCCC[C@H](NC(=O)OC2CCCC2)C(=O)N2C[C@@]4(CCc5c(c(-c6cccc(F)c6)nc6ccccc56)O4)C[C@H]2C(=O)N3)CC1 [Example 81, cyclopentyl [(2R,6S,12Z,13aS,14aR,16aS)-5′-(3-fluorophenyl)-14a-{[(1-methylcyclopropyl)sulfonyl]carbamoyl}-5,16-dioxo-1,1′,2′,5,6,7,8,9,10,11,13a,14,14a,15,16,16a-hexadecahydrospiro[cyclopropa[e]pyrrolo[1,2-a][1,4]diazacyclopentadecine-2,3′-pyrano[2,3-c]quinolin]-6-yl]carbamate] | 1.33 | – | – | – |
| CC1(S(=O)(=O)NC(=O)[C@@]23C[C@H]2/C=C\CCCCC[C@H](NC(=O)NC2CCCC2)C(=O)N2C[C@@]4(CCc5c(c(-c6cccc(F)c6)nc6ccccc56)O4)C[C@H]2C(=O)N3)CC1 [Example 82, (2R,6S,12Z,13aS,14aR,16aS)-6-[(cyclopentylcarbamoyl)amino]-5′-(3-fluorophenyl)-N-[(1-methylcyclopropyl)sulfonyl]-5,16-dioxo-1,1′,2′,6,7,8,9,10,11,13a,14,15,16,16a-tetradecahydrospiro[cyclopropa[e]pyrrolo[1,2-a][1,4]diazacyclopentadecine-2,3′-pyrano[2,3-c]quinoline]-14a(5H)-carboxamide] | 4.25 | – | – | – |
| CC1(S(=O)(=O)NC(=O)[C@@]23C[C@H]2/C=C\CCCCC[C@H](NC(=O)NC2CCCCC2)C(=O)N2C[C@@]4(CCc5c(c(-c6cccc(F)c6)nc6ccccc56)O4)C[C@H]2C(=O)N3)CC1 [Example 83, (2R,6S,12Z,13aS,14aR,16aS)-6-[(cyclohexylcarbamoyl)amino]-5′-(3-fluorophenyl)-N-[(1-methylcyclopropyl)sulfonyl]-5,16-dioxo-1,1′,2′,6,7,8,9,10,11,13a,14,15,16,16a-tetradecahydrospiro[cyclopropa[e]pyrrolo[1,2-a][1,4]diazacyclopentadecine-2,3′-pyrano[2,3-c]quinoline]-14a(5H)-carboxamide] | 3.71 | – | – | – |
| Cc1nc2ccccc2c2c1O[C@]1(CC2)C[C@H]2C(=O)N[C@]3(C(=O)NS(=O)(=O)C4(C)CC4)C[C@H]3/C=C\CCCCC[C@H](NC(=O)CC(F)(F)F)C(=O)N2C1 [Example 84, (2R,6S,12Z,13aS,14aR,16aS)-5′-methyl-N-[(1-methylcyclopropyl)sulfonyl]-5,16-dioxo-6-[(3,3,3-trifluoropropanoyl)amino]-1,1′,2′,6,7,8,9,10,11,13a,14,15,16,16a-tetradecahydrospiro[cyclopropa[e]pyrrolo[1,2-a][1,4]diazacyclopentadecine-2,3′-pyrano[2,3-c]quinoline]-14a(5H)-carboxamide] | 7.79 | – | – | – |
| Cc1ccc2nc(C)c3c(c2c1)CC[C@]1(C[C@H]2C(=O)N[C@]4(C(=O)O)C[C@H]4/C=C\CCCCC[C@H](NC(=O)OC(C)(C)C)C(=O)N2C1)O3 [Example 86, (2R,6S,12Z,13aS,14aR,16aS)-6-[(tert-butoxycarbonyl)amino]-5′,9′-dimethyl-5,16-dioxo-1,1′,2′,6,7,8,9,10,11,13a,14,15,16,16a-tetradecahydrospiro[cyclopropa[e]pyrrolo[1,2-a][1,4]diazacyclopentadecine-2,3′-pyrano[2,3-c]quinoline]-14a(5H)-carboxylic acid] | > 100 | – | – | – |
| CC(C)OC(=O)N[C@H]1CCCCC/C=C\[C@@H]2C[C@@]2(C(=O)NS(=O)(=O)C2(C)CC2)NC(=O)[C@@H]2C[C@]3(CCc4c(c(-c5cccc(F)c5)nc5ccccc45)O3)CN2C1=O [Example 89, propan-2-yl [(2R,6S,12Z,13aS,14aR,16aS)-5′-(3-fluorophenyl)-14a-{[(1-methylcyclopropyl)sulfonyl]carbamoyl}-5,16-dioxo-1,1′,2′,5,6,7,8,9,10,11,13a,14,14a,15,16,16a-hexadecahydrospiro[cyclopropa[e]pyrrolo[1,2-a][1,4]diazacyclopentadecine-2,3′-pyrano[2,3-c]quinolin]-6-yl]carbamate] | 2.85 | – | – | – |
